Measurements as given in US20170143701A1, “CARBOHYDRATE METABOLISM-AMELIORATING AGENT” (SUNTORY HOLDINGS LIMITED, priority 2014, published 2017).

System: C57/BL6J mice
Assay: In vivo plasma GLP-1 level-increasing action: plasma active GLP-1 level (ELISA) after oral administration
Conditions: 10 mg/kg oral; for Significant difference (p < 0.05) vs control group, plasma active GLP-1 level: 30 minutes, Student's t-test; for Plasma active GLP-1 level (relative value to control group as 100), average value: blood 30 minutes after, 0.5% CMC-Na group = 100
Method: Seven-week-old male C57/BL6J mice were purchased from CLEA Japan, Inc. for use, and they were subjected to an experiment after 1 week of a habituation period.
After the habituation period, the mice were subjected to 5.5 hours of food deprivation and 2 hours of water deprivation. Thereafter, a cyclic dipeptide dissolved or suspended in a 0.5% CMC-Na aqueous solution in 10 mg/kg was orally administered to each mouse forcibly. After 30 minutes, the blood was collected from the abdominal vena cava under anesthesia, and 1 μL of heparin sodium and 1 μL of 10 mM Sitagliptin phosphate were added to each collected blood, which was then subjected to centrifugation at 8000 rpm for 10 minutes to recover the plasma, and the plasma active GLP-1 level was measured by using the ELISA kit. In the analysis, the active GLP-1 level for a group administered with 0.5% CMC-Na aqueous solution was defined as 100, and relative values thereto were used.

**Q.** With NC(=O)CC[C@@H]1NC(=O)[C@H](Cc2ccc(O)cc2)NC1=O [compound 93, cyclo-glutaminyl-tyrosine] as the compound, how does the “Significant difference (p < 0.05) vs control group, plasma active GLP-1 level” value (Table 12, Experiment 7) read?
**A.** The value was “Yes”.

**Q.** And the “Plasma active GLP-1 level (relative value to control group as 100), average value” (Table 12, Experiment 7)?
**A.** The value was 344.

**Q.** Which “Significant difference (p < 0.05) vs control group, plasma active GLP-1 level” value (Table 10, Experiment 5) does the source give for NC(=O)CC1NC(=O)C(Cc2ccccc2)NC1=O (stereo not drawn) [compound 64, Cyclo(Asn-Phe)] here?
**A.** The value was “No”.

**Q.** And the “Plasma active GLP-1 level (relative value to control group as 100), average value” (Table 10, Experiment 5)?
**A.** Its value is 93.

**Q.** Which results are given for CC(C)C[C@@H]1NC(=O)[C@H](C)NC1=O [compound 44, cyclo-alanyl-leucine]?
**A.** Significant difference (p < 0.05) vs control group, plasma active GLP-1 level (Table 8, Experiment 3): Yes; Plasma active GLP-1 level (relative value to control group as 100), average value (Table 8, Experiment 3): 255

**Q.** CC(C)CC1NC(=O)C(CC(N)=O)NC1=O (stereo not drawn) [compound 106, Cyclo(Asn-Leu)] was tested. Which “Significant difference (p < 0.05) vs control group, plasma active GLP-1 level” value (Table 13, Experiment 8) did it give?
**A.** The value was “No”.

**Q.** What about the “Plasma active GLP-1 level (relative value to control group as 100), average value” (Table 13, Experiment 8) of the same compound?
**A.** Its value is 94.

**Q.** Which results are given for CC[C@H](C)C1NC(=O)[C@H](CC(N)=O)NC1=O (stereo partly drawn) [compound 163, cyclo-asparaginyl-isoleucine]?
**A.** Significant difference (p < 0.05) vs control group, plasma active GLP-1 level (Table 15, Experiment 10): Yes; Plasma active GLP-1 level (relative value to control group as 100), average value (Table 15, Experiment 10): 327

**Q.** For O=C1NC(Cc2cnc[nH]2)C(=O)NC1Cc1ccc(O)cc1 (stereo not drawn) [compound 85, Cyclo(His-Tyr)], which “Significant difference (p < 0.05) vs control group, plasma active GLP-1 level” value (Table 11, Experiment 6) is on record?
**A.** The value was “No”.

**Q.** What about the “Plasma active GLP-1 level (relative value to control group as 100), average value” (Table 11, Experiment 6) of the same compound?
**A.** The value was 90.

**Q.** How did the “Significant difference (p < 0.05) vs control group, plasma active GLP-1 level” value (Table 6, Experiment 1) turn out when CC(C)[C@@H]1NC(=O)[C@H](Cc2ccccc2)NC1=O [compound 54, Cyclo(Val-Phe)] was run?
**A.** The value was “No”.

**Q.** What about the “Significant difference (p < 0.05) vs control group, plasma active GLP-1 level” value (Table 10, Experiment 5) of the same compound?
**A.** Its value is “No”.

**Q.** With CSCCC1NC(=O)C(Cc2ccccc2)NC1=O (stereo not drawn) [compound 67, Cyclo(Met-Phe)] as the compound, how does the “Significant difference (p < 0.05) vs control group, plasma active GLP-1 level” value (Table 10, Experiment 5) read?
**A.** Its value is “No”.

**Q.** What about the “Plasma active GLP-1 level (relative value to control group as 100), average value” (Table 10, Experiment 5) of the same compound?
**A.** Its value is 93.

**Q.** What does the source list for O=C1NC(Cc2ccccc2)C(=O)N2CCCC12 (stereo not drawn) [compound 13, Cyclo(Phe-Pro)]?
**A.** Significant difference (p < 0.05) vs control group, plasma active GLP-1 level (Table 9, Experiment 4): No; Plasma active GLP-1 level (relative value to control group as 100), average value (Table 9, Experiment 4): 120

**Q.** Which “Significant difference (p < 0.05) vs control group, plasma active GLP-1 level” value (Table 14, Experiment 9) does the source give for CC[C@H](C)[C@@H]1NC(=O)[C@H](CO)NC1=O [compound 133, cyclo-isoleucyl-serine] here?
**A.** The value was “Yes”.

**Q.** Which “Significant difference (p < 0.05) vs control group, plasma active GLP-1 level” value (Table 8, Experiment 3) does the source give for CCC(C)C1NC(=O)C(Cc2c[nH]c3ccccc23)NC1=O (stereo not drawn) [compound 62, Cyclo(Trp-Ile)] here?
**A.** Its value is “No”.

**Q.** What about the “Plasma active GLP-1 level (relative value to control group as 100), average value” (Table 8, Experiment 3) of the same compound?
**A.** The value was 178.

**Q.** Which “Significant difference (p < 0.05) vs control group, plasma active GLP-1 level” value (Table 15, Experiment 10) does the source give for CC[C@H](C)[C@@H]1NC(=O)[C@H](CCCCN)NC1=O [compound 150, cyclo-isoleucyl-lysine] here?
**A.** Its value is “Yes”.

**Q.** And the “Plasma active GLP-1 level (relative value to control group as 100), average value” (Table 15, Experiment 10)?
**A.** The value was 282.

**Q.** Which “Significant difference (p < 0.05) vs control group, plasma active GLP-1 level” value (Table 15, Experiment 10) does the source give for CC(C)CC1NC(=O)C(CO)NC1=O (stereo not drawn) [compound 151, cyclo-seryl-leucine] here?
**A.** The value was “Yes”.

**Q.** What about the “Plasma active GLP-1 level (relative value to control group as 100), average value” (Table 15, Experiment 10) of the same compound?
**A.** The value was 259.

**Q.** Which results are given for CCC(C)C1NC(=O)C(C)NC1=O (stereo not drawn) [compound 123, Cyclo(Ile-Ala)]?
**A.** Significant difference (p < 0.05) vs control group, plasma active GLP-1 level (Table 14, Experiment 9): No; Plasma active GLP-1 level (relative value to control group as 100), average value (Table 14, Experiment 9): 120

**Q.** With O=C1CNC(=O)[C@H](Cc2ccccc2)N1 [compound 8, Cyclo(Gly-Phe)] as the compound, how does the “Significant difference (p < 0.05) vs control group, plasma active GLP-1 level” value (Table 9, Experiment 4) read?
**A.** The value was “No”.

**Q.** And the “Plasma active GLP-1 level (relative value to control group as 100), average value” (Table 9, Experiment 4)?
**A.** The value was 85.

**Q.** Which “Significant difference (p < 0.05) vs control group, plasma active GLP-1 level” value (Table 15, Experiment 10) does the source give for CC(C)[C@@H]1NC(=O)[C@H](CC(N)=O)NC1=O [compound 141, cyclo-asparaginyl-valine] here?
**A.** Its value is “Yes”.

**Q.** What about the “Plasma active GLP-1 level (relative value to control group as 100), average value” (Table 15, Experiment 10) of the same compound?
**A.** Its value is 191.

**Q.** Which “Significant difference (p < 0.05) vs control group, plasma active GLP-1 level” value (Table 11, Experiment 6) does the source give for NC(=O)CC[C@@H]1NC(=O)[C@H](Cc2c[nH]c3ccccc23)NC1=O [compound 82, Cyclo(Trp-Gln)] here?
**A.** The value was “No”.

**Q.** What about the “Plasma active GLP-1 level (relative value to control group as 100), average value” (Table 11, Experiment 6) of the same compound?
**A.** The value was 90.

**Q.** O=C1CNC(=O)C(CS)N1 (stereo not drawn) [compound 178, cyclo-glycyl-cysteine] was tested. Which “Significant difference (p < 0.05) vs control group, plasma active GLP-1 level” value (Table 15, Experiment 10) did it give?
**A.** Its value is “Yes”.

**Q.** What about the “Plasma active GLP-1 level (relative value to control group as 100), average value” (Table 15, Experiment 10) of the same compound?
**A.** Its value is 282.

**Q.** What does the source list for CC[C@H](C)[C@@H]1NC(=O)[C@H](CC(=O)O)NC1=O [compound 162, cyclo-isoleucyl-aspartic acid]?
**A.** Significant difference (p < 0.05) vs control group, plasma active GLP-1 level (Table 15, Experiment 10): Yes; Plasma active GLP-1 level (relative value to control group as 100), average value (Table 15, Experiment 10): 259

**Q.** Which results are given for CC(C)C[C@@H]1NC(=O)[C@H](CC(C)C)NC1=O [compound 15, Cyclo(Leu-Leu)]?
**A.** Significant difference (p < 0.05) vs control group, plasma active GLP-1 level (Table 9, Experiment 4): No; Plasma active GLP-1 level (relative value to control group as 100), average value (Table 9, Experiment 4): 95
